Entries after “also recorded” stand apart in the source; their conditions may differ.
Columns and labels:
[1] = system: Latently infected cells (DHIV-infected NP cells); test: HIV-1 reactivation in latently infected NP cells by signaling agonists (intracellular p24 Gag, flow cytometry); assay type: cell-based, human; details: agonist 3 days at the concentration of b193; for ability of agonist to reactivate viral gene expression (in words): p24 Gag+ cells
Experimental: (§1) To assess intracellular p24-gag expression, 5×10^5 cells were fixed and permeabilized with Citofix/Cytoperm during 30 min at 4° C. (BD Biosciences, San Diego, Calif.). Cells were washed with Perm/Wash Buffer (BD Biosciences) and stained with 1:40 dilution of anti-p24 antibody (AG3.0) in 100 μl of Perm/Wash Buffer during 30 min at 4° C. Cells were washed with Perm/Wash Buffer and incubated with 1:100 Alexa Fluor 488 goat anti-mouse IgG (H+L) in 100 μl of Perm/Wash Buffer during 30 min at 4° C. Cells were washed with Perm/Wash Buffer and samples were analyzed by flow cytometry. Forward versus side scatter plots were used to define the live population. In all the experiments, HIV p24-gag staining regions were set with uninfected cells treated in parallel.
To complement the inhibitor studies, additional experimentation was conducted using agonists for the above signaling pathways. Latently infected cells were either left untreated or incubated with agonist. As a positive control, cells were treated with αCD3/CD28. The ability of the agonist to promote viral reactivation was then evaluated by detection of intracellular p24^Gag as shown above (FIG. 4). Phytohemagglutinin (PHA), a lectin that binds non-specifically to carbohydrate moieties on surface glycoproteins and acts as a potent polyclonal mitogen for T cells, was the first to be tested.
(§2) The concentration of each inhibitor or activator was as follows: 5 μM H-89, 50 μM PD98059, 250 nM Wortmannin, 15 nM bisindolylmaleimide II (BIM), 5 μM Rottlerin, 10 μM PP2, 50 μg/ml I kappa B Kinase Inhibitor Peptide, Cell-Permeable (IKK inh.) and 50 μM Forskolin (Calbiochem, San Diego, Calif.); 50 μM SB202190 and 125 ng/ml Leflunomide (Alexis Biochemicals, San Diego, Calif.); 10 nM Gö6976 and 1 μM Prostratin (LC Laboratories, Woburn, Mass.); 25 ng/ml TNF-α (Prepotech Inc.); 10 ng/ml phorbol 12-myristate 13-acetate, 1 μM Ionomycin, 5 μg/ml L-PHA and 1 mM Valproic Acid (Sigma, Saint Louis, Mo.); 500 ng/ml Cyclosporin A (Fluka/Sigma); 25 μM SP600125 (A.G. Scientific Int., San Diego, Calif.); and 20 μM Integrase Inhibitor (118-D-24).

DHIV-infected NP cells = test: HIV-1 reactivation by αCD3/CD28 in latently infected NP cells in the presence of signaling inhibitors (intracellular p24 Gag, flow cytometry); assay type: cell-based, human; details: αCD3/CD28 restimulation 3 days; for inhibition of reactivation: inhibitor preincubated 2 hr
Experimental: as §1
2.5×10^5 cells were reactivated with beads coated with anti-CD3 and anti-CD28 during 72 hours in the presence of IL-2 (1 bead per cell).
For inhibition studies, cells were preincubated with the indicated inhibitor for 2 hr before stimulation (See Supplementary Methods on line for the concentration of each inhibitor or activator).
To begin to dissect potential signaling pathways leading to virus reactivation, a panel of known signaling inhibitors was tested. […] As a control, and to confirm expectations that the observed latent infections represent post-integration events, the integrase inhibitor, 118-D-24, was tested (FIG. 3A).
as §2

[2] = system: Latently infected cells (DHIV-infected NP cells); test: PHA-mediated HIV-1 reactivation in the presence of inhibitors (intracellular p24 Gag); assay type: cell-based, human
Experimental: To assess intracellular p24-gag expression, 5×10^5 cells were fixed and permeabilized with Citofix/Cytoperm during 30 min at 4° C. […] Cells were washed with Perm/Wash Buffer (BD Biosciences) and stained with 1:40 dilution of anti-p24 antibody (AG3.0) in 100 μl of Perm/Wash Buffer during 30 min at 4° C. Cells were washed with Perm/Wash Buffer and incubated with 1:100 Alexa Fluor 488 goat anti-mouse IgG (H+L) in 100 μl of Perm/Wash Buffer during 30 min at 4° C. Cells were washed with Perm/Wash Buffer and samples were analyzed by flow cytometry. Forward versus side scatter plots were used to define the live population. In all the experiments, HIV p24-gag staining regions were set with uninfected cells treated in parallel.
For inhibition studies, cells were preincubated with the indicated inhibitor for 2 hr before stimulation (See Supplementary Methods on line for the concentration of each inhibitor or activator). […]

latently infected cells = test: IL-7+IL-2 induced viral reactivation in the presence of inhibitors; assay type: cell-based, human; details: IL-7+IL-2 stimulation
Excerpt: Understanding the intracellular mediators of IL-7/IL-2 stimulation provides additional targets toward latent virus purging. Some of these mediators can be enzymes, such as kinases and phosphatases, which may be ameneable to agonistic or antagonistic drugs. It is also important to know the IL-7/IL-2 signaling because, as noted herein, this pathway is the basis for homeostatic proliferation of memory cells, where an important proportion of proliferating cells are not inducing viral reactivation.
IL-7 stimulation induces activation of p38MAPK (a noncanonical IL-7 dependent pathway). […] Therefore, p38α is also a mediator for reactivation via IL-7.

p38α MAPK = details: cited from earlier work
[3] = system: Jurkat latently infected cells; details: Jurkat cell line; cited from earlier work
[4] = system: tumor cell lines harboring integrated, latent HIV-1; details: through the activation of NFκB; cited from earlier work
[5] = inhibitor at the concentration of b193

## CC(=O)O[C@@]12C[C@@H](C)[C@@]3(O)[C@@H](C=C(CO)C[C@]4(O)C(=O)C(C)=C[C@@H]34)[C@@H]1C2(C)C [prostratin]
[1]
  ability of agonist to reactivate viral gene expression (in words): Neither compound was able to reactivate viral gene expression; also recorded: failed to induce any degree of reactivation

## Cn1c2ccccc2c2c3c(c4c5ccccc5n(CCC#N)c4c21)CNC3=O [Gö6976]
DHIV-infected NP cells; [5]
  effect of inhibitor on viral reactivation (in words): None of these three compounds had a negative effect on viral reactivation

## CC(=O)c1c(O)c(C)c(O)c(Cc2c(O)c3c(c(C(=O)/C=C/c4ccccc4)c2O)OC(C)(C)C=C3)c1O [Rottlerin]
DHIV-infected NP cells; [5]
  effect of inhibitor on viral reactivation (in words): None of these three compounds had a negative effect on viral reactivation

## CCCC(CCC)C(=O)O [VA, valproic acid]
[1]
  ability of agonist to reactivate viral gene expression (in words): failed to reactivate viral gene expression
[1]; listed as Valproic acid
  ability of agonist to reactivate viral gene expression (in words): incapable of inducing viral reactivation

## C[C@H](CCC(=O)O)C[C@H](C)C[C@H](C)C(=O)/C=C(\O)[C@H](C)C[C@H](C)C/C=C/[C@@H](C)[C@@H](O)[C@@H](C)[C@@H](O)C[C@@H]1CC[C@@](C)([C@H]2CC[C@@](C)([C@@H](C)O)O2)O1 [lonomycin, Ionomycin]
[1]
  ability of agonist to reactivate viral gene expression (in words): had no effect on viral reactivation; also recorded: produced no detectable reactivation

## O=S(=O)(NCCNC/C=C/c1ccc(Br)cc1)c1cccc2cnccc12 [H-89]
DHIV-infected NP cells; [5]
  effect of inhibitor on viral reactivation (in words): did not have any effect on viral reactivation

## CC(C)(C)n1nc(-c2ccc(Cl)cc2)c2c(N)ncnc21 [PP2]
DHIV-infected NP cells
  inhibition of reactivation: about 96%
[2]; PHA stimulation co-incubated with inhibitor, relative to αCD3/CD28
  viral reactivation with PHA in the presence of inhibitor (reactivation efficiency): 3%
[2]; PHA stimulation plus inhibitor
  effect of inhibitor on reactivation by PHA (in words): completely blocked reactivation by PHA

## COc1cccc(-c2cc(=O)c3ccccc3o2)c1N [PD98059]
DHIV-infected NP cells; [5]
  effect of inhibitor on viral reactivation (in words): Neither SP600125 nor PD98059 inhibited viral reactivation

## Phytohemagglutinin [PHA]
[1]
  ability of agonist to reactivate viral gene expression (in words): induced reactivation almost as efficiently as αCD3/CD28 treatment
[1]; relative to αCD3/CD28, formula
  reactivation efficiency: 79%

## C[S+]([O-])c1ccc(-c2nc(-c3ccncc3)c(-c3ccc(F)cc3)[nH]2)cc1 (stereo not shown) [SB203580]
DHIV-infected NP cells
  inhibition of reactivation: about 66%
Latently infected cells
  effect of inhibitor on reactivation by IL-7+IL-2 (in words): can block reactivation
p38α MAPK
  effect on IL-7 induced proliferative response (in words): abrogated the proliferative response

## TNF-α
[1]
  ability of agonist to reactivate viral gene expression (in words): failed to induce any degree of viral gene expression; also recorded: failed to induce any degree of reactivation; also recorded: failed to induce any detectable reactivation
[3]
  reactivation of latent viruses (in words): Reactivation of these latent viruses was accomplished
[4]
  induction of viral gene expression (in words): can induce viral gene expression

## Cc1oncc1C(=O)Nc1ccc(C(F)(F)F)cc1 [Leflunomide]
DHIV-infected NP cells; [5]
  effect of inhibitor on viral reactivation (in words): failed to block viral reactivation
DHIV-infected NP cells; inhibitor at the concentration of b193, listed as lefluonomide
  effect of inhibitor on viral reactivation (in words): does not block reactivation in memory cells

## CCCCCCCCCCCCCC(=O)O[C@@H]1[C@@H](C)[C@@]2(O)[C@@H](C=C(CO)C[C@]3(O)C(=O)C(C)=C[C@@H]23)[C@@H]2C(C)(C)[C@]12OC(C)=O [PMA, phorbol 12-myristate 13-acetate]
[1]
  ability of agonist to reactivate viral gene expression (in words): Neither compound was able to reactivate viral gene expression; also recorded: failed to induce any degree of reactivation; also recorded: failed to induce any detectable reactivation
[3]
  reactivation of latent viruses (in words): Reactivation of these latent viruses was accomplished

## CN1CCCC1CCn1cc(C2=C(c3c[nH]c4ccccc34)C(=O)NC2=O)c2ccccc21 (stereo not shown) [BIM, bisindolylmaleimide II]
DHIV-infected NP cells; [5]
  effect of inhibitor on viral reactivation (in words): None of these three compounds had a negative effect on viral reactivation

## Oc1ccc(-c2nc(-c3ccncc3)c(-c3ccc(F)cc3)[nH]2)cc1 [SB202190]
DHIV-infected NP cells
  inhibition of reactivation: 66%
